Laboratory results: patent EP2646421B1, “7-NITRO-5-PHENYL-1-(PYRROLIDIN-1-YLMETHYL)-1H-BENZO[E][1,4]DIAZEPIN-2(3H)-ONE AND OTHER BENZODIAZEPINE DERIVATIVES” (Pignataro, Giuseppe, priority 2010, dated 2012)

Tested on: ischemic volume after tMCAO
Experiment: Transient middle cerebral artery occlusion (tMCAO) cerebral ischemia model
Type: in vivo, mice
Source text: For experimental stroke male wild-type C57BL of 2 months have been used. All mice were anesthetized with a gas containing 70 % N2O, 28% O2 e 2% sevoflurane).
Usually, after anesthesia an incision on the ventral neck is made and, under an operating stereo-microscope and with the help of microsurgery twizzers, the muscle is diverted until the common carotid artery (CCA). Then, through smoothly diversion, the CCA is isolated from the vague nerve and the jugulars vein. Analogously, the external carotid artery (ECA) and the internal carotid artery (ICA) are isolated as well.After the isolation of these vessels and the positioning of vascular microclips, a nylon filament (5-0, Ethilon, 11 mm length) is inserted into the internal carotid artery (ICA), at the level of bifurcation with the common carotid artery. The filament is pushed in cranial direction until is reached the bifurcation of the middle cerebral artery (MCA), whose flux is interrupted. After the insertion of the filament the wound is closed with a temporary suture and the mouse is let to awake. After 60 minutes the animal is re-anesthesized and the ischemia is interrupted through the filament rimotion from the vessel. The reduction in cerebral blood flow has been evaluated by means of a cerebral laser-Doppler system (Periflux, Sweden with software Perimed 1.30) that uses a probe fixed on the skull. The body temperature has been maintained constant by means of a homoeothermic blanket connected to a rectal probe. Few minutes after the end of the surgical procedure the mouse awakes and, on the nasis of the pain degree noticed, is decided for the administration of analgesic drugs. Neurounina-1 administration has been done intraperitoneally at different dosages, immediately before, 3 hours or 5 hours the ischemia onset. 24 hours after the surgical procedure, the animal is killed through cervical dislocation and the brain is removed from the skull and analyzed for the determination of the ischemic damage extension. In particular, by means of a vibratome, serial coronal brain sections of […] are obtained. These brain sections are treated with 2,3,5-triphenyl tetrazolium chloride (TTC), an organic compound that has the peculiarity of being oxidized and precipitated as formazan salt only from vital tissue. By contrast, the ischemic tissue, being not able to generate this reaction, remains white. […] The software used (Image Pro-plus 4.1) allows, then, to obtain the brain infarct volume from the value of the infarct areas obtained in close brain slices.Data obtained in this manner are then elaborated to obtain a percentage evaluation of the ischemic damage induced compared to the brain hemisphere […] to the ischemic lesion.

O=C1CN=C(c2ccccc2)c2cc([N+](=O)[O-])ccc2N1CN1CCCC1 [neurounina-1, 7-nitro-5-phenyl-1-(pyrrolidin-1-ylmethyl)-1H-benzo[e][1,4]diazepin-2(3H)-one]
ischemic damage (administered just before tMCAO induction, 3 ng/kg, intraperitoneal): significantly reduced ischemic damage
minimal dose with neuroprotective effect (five hours from tMCAO, intraperitoneal): 30 µg/kg
neuroprotective effect (intraperitoneally 3 hours after tMCAO, dose-range 3 ng/kg to 30 µg/kg): still present
ischemic volume (mice, intraperitoneal administration, tMCAO): decreased the ischemic volume
